Here are results for 42 compounds from patent US8802664B2 (Bioproject, priority 2010, dated 2014).

Structures can show the parent of a compound that is named as a salt. A value given as a limit tells only on which side of the number the result lay.

The target of data set [1] is T1, human H4 receptor (Homo sapiens, UniProt Q9H3N8).
T1 construct: expressed in transfected cells
In words: [3H]Histamine binding on membranes of CHO cells stably expressing human H4 receptor. Summed up:
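Nonspecific binding defined with 10 μM JNJ 7777120. Bound radioactivity collected on polyethyleneimine-treated GF/B filters and counted by liquid scintillation.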

T1 sequence (Q9H3N8 whole entry): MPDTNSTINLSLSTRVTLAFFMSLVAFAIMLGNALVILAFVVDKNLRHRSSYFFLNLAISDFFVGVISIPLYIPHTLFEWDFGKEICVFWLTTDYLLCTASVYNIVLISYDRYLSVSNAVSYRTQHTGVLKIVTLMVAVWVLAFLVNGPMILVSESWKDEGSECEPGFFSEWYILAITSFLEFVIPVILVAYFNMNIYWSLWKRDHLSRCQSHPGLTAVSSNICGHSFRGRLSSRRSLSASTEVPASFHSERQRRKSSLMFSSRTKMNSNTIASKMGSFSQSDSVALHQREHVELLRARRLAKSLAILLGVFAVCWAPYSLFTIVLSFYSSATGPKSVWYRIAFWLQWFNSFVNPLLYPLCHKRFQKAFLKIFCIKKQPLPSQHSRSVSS

The melting point is the temperature, or range, at which the solid turns liquid. Turning to `COc1ccc(F)c(C(OC2CCN(C)CC2)c2nc3ccccc3[nH]2)c1` (stereo not shown) (as salt: oxalate) [Example 486], the melting point was determined as 105 °C.
Still for that read-out and setting: the value for `CN1CCC(OC(c2nc3ccccc3[nH]2)c2cc(O)ccc2F)CC1` (stereo not shown) (as salt: oxalate) [Example 487] was 135 °C; that for `CN1CCC(OC(c2nc3ccccc3[nH]2)c2cc(OCCF)ccc2F)CC1` (stereo not shown) (as salt: oxalate) [Example 489] was 109 °C.
Still for that read-out and setting: the value for `Cc1ccc(F)c(C(OC2CCN(C)CC2)c2nc3ccccc3[nH]2)c1` (stereo not shown) (as salt: oxalate) [Example 490] was 132 °C; that for `CN1CCC(OC(c2cccc(SCCCCN)c2)c2nc3cc(F)c(F)c(F)c3[nH]2)CC1` (stereo not shown) (as salt: oxalate) [Example 493] was 110 °C; that for `CN1CCC(OC(c2cccc(SCCCCN)c2)c2nc3cc(F)c(F)cc3[nH]2)CC1` (stereo not shown) (as salt: oxalate) [Example 495] was 180 °C.
The same measure, in the same setting: the figure for `CCOCCn1c(C(OC2CCN(C)CC2)c2cccc(I)c2)nc2ccccc21` (stereo not shown) (as salt: oxalate) [Example 497, 1-(2-ethoxyethyl)-2-[(3-iodophenyl)(1-methylpiperidin-4-yloxy)methyl]-1H-benzimidazole] is 88 °C; for `CCOCCn1c(C(OC2CCN(C)CC2)c2cccc(C#CCCCCN)c2)nc2ccccc21` (stereo not shown) (as salt: oxalate) [Example 500] it is 103 °C.
For the compound `COCCn1c(C(OC2CCN(C)CC2)c2cccc(C#CCCCCN)c2)nc2ccccc21` (stereo not shown) (as salt: oxalate) [Example 501], the melting point is 109 °C.
For `CN1CCC(OC(c2cccc(SCCCF)c2)c2nc3ccccc3[nH]2)CC1` (stereo not shown) (as salt: oxalate) [Example 508], the melting point came out at 85 °C.
Consider `CN1CCC(OC(c2nc3cc(F)ccc3[nH]2)c2cc(OC(F)(F)F)ccc2F)CC1` (stereo not shown) (as salt: oxalate) [Example 509], for which the melting point came to 70 °C.
On the same count and under the same terms, the figure for `CN1CCC(OC(c2nc3ccccc3[nH]2)c2cc(OC(F)(F)F)ccc2Cl)CC1` (stereo not shown) (as salt: oxalate) [Example 524] is 107 °C.
On to `CN1CCC(OC(c2nc3ccccc3o2)c2cc(OC(F)(F)F)ccc2F)CC1` (stereo not shown) (as salt: oxalate) [Example 525, 2-[(2-fluoro-5-trifluoromethoxyphenyl)(1-methylpiperidin-4-yloxy)methyl]benzoxazole], for which the melting point was determined as 103 °C.
On the same count and under the same terms, the figure for `CN1CCC(OC(c2nc3ccccc3s2)c2cc(OC(F)(F)F)ccc2F)CC1` (stereo not shown) (as salt: oxalate) [Example 526] is 95 °C.
Still for that read-out and setting: the figure for `CN1CCC(OC(c2nc3cccc(F)c3[nH]2)c2cc(OC(F)(F)F)ccc2F)CC1` (stereo not shown) (as salt: oxalate) [Example 529] is 135 °C; for `Cc1cc(F)c(C(OC2CCN(C)CC2)c2nc3ccccc3s2)c(F)c1` (stereo not shown) (as salt: oxalate) [Example 531] it is 125 °C.
Take `CN1CCC(OC(c2nc3ccccc3s2)c2c(F)cc(Cl)cc2F)CC1` (stereo not shown) (as salt: oxalate) [Example 532]: the melting point is 158 °C.
`Cc1cc(F)c(C(OC2CCN(C)CC2)c2nc3ccccc3o2)c(F)c1` (stereo not shown) (as salt: oxalate) [Example 536]: the melting point was found to be 114 °C.
Same read-out and setting: the figure for `Cc1ccc(C(OC2CCN(C)CC2)c2nc3ccccc3o2)c(F)c1` (stereo not shown) (as salt: oxalate) [Example 545] is 110 °C.
The compound `CN1CCC(OC(c2cc(C(F)(F)F)cc(C(F)(F)F)c2)c2nc3ccccc3[nH]2)CC1` (stereo not shown) (as salt: oxalate) [Example 547] gave a melting point of 130 °C.
The same measure, in the same setting: the figure for `CCOC(=O)NCCCCC#Cc1cccc(C(OC2CCN(C)CC2)c2nc3ccccc3n2C)c1` (stereo not shown) (as salt: oxalate) [Example 549, ethyl (6-{3-[(1-methyl-1H-benzimidazol-2-yl)(1-methylpiperidin-4-yloxy)methyl]phenyl}hex-5-ynyl)carbamate] is 90 °C; for `CN1CCC(OC(c2ccc3cc[nH]c3c2)c2nc3ccccc3[nH]2)CC1` (stereo not shown) (as salt: oxalate) [Example 550, 2-[(1H-indol-6-yl)(1-methylpiperidin-4-yloxy)methyl]-1H-benzimidazole] it is 170 °C.
On the same count and under the same terms, the value for `CCOC(=O)n1c(C(OC2CCN(C)CC2)c2cc(OC(F)(F)F)ccc2F)nc2ccccc21` (stereo not shown) (as salt: oxalate) [Example 553] was 118 °C; that for `CN1CCC(OC(c2ccc3ccsc3c2)c2nc3ccccc3[nH]2)CC1` (stereo not shown) (as salt: oxalate) [Example 556, 2-[benzo[b]thiophen-6-yl(1-methylpiperidin-4-yloxy)methyl]-1H-benzimidazole] was 160 °C.
On the same count and under the same terms, the figure for `CN1CCC(OC(c2nc3ccccc3[nH]2)c2cc(C#CCCCCN)ccc2F)CC1` (stereo not shown) (as salt: oxalate) [Example 557, 6-{3-[(1H-benzimidazol-2-yl)(1-methylpiperidin-4-yloxy)methyl]-4-fluorophenyl}hex-5-ynylamine] is 195 °C; for `CN1CCC(COC(c2cccc(Br)c2)c2nc3ccccc3s2)C1` (single isomer, unassigned) (as salt: oxalate) [Example 464] it is 68 °C.
Take `CN1CCC(OC(c2cccc(Br)c2)c2nc3ccccc3[nH]2)CC1` (single isomer, unassigned) [Example 564, 2-[(3-bromophenyl)(1-methylpiperidin-4-yloxy)methyl]-1H-benzimidazole]: the melting point came to 85 °C. Besides, in data set [1], the Ki or IC50 activity class was < 30 nM.
With `CN1CCC(OC(c2cccc(C#CCCCN)c2)c2nc3ccccc3[nH]2)CC1` (single isomer, unassigned) [Example 565, 5-{3-[(1H-benzimidazol-2-yl)(1-methylpiperidin-4-yloxy)methyl]phenyl}pent-4-ynylamine], the melting point was 84 °C. Also, the Ki or IC50 activity class in data set [1] is < 300 nM.
As to `CN1CCC(OC(c2cccc(C#CCCCN)c2)c2nc3ccccc3[nH]2)CC1` (single isomer, unassigned) [Example 566, 5-{3-[(1H-benzimidazol-2-yl)(1-methylpiperidin-4-yloxy)methyl]phenyl}pent-4-ynylamine], the melting point came out at 82 °C. Also, the Ki or IC50 activity class in data set [1] was < 30 nM.
The compound `CN1CCC(OC(c2cccc(Br)c2)c2nc3cc(F)ccc3[nH]2)CC1` (single isomer, unassigned) [Example 567, 2-[(3-bromophenyl)(1-methylpiperidin-4-yloxy)methyl]-5-fluoro-1H-benzimidazole] displayed a melting point of 89 °C. Besides, the Ki or IC50 activity class in data set [1] is < 300 nM.
`CN1CCC(OC(c2ccccc2)c2nc3ccccc3s2)CC1` (stereo not shown) [Example 1, 2-[(1-methylpiperidin-4-yloxy)phenylmethyl]benzothiazole] gave a melting point of 115 °C. In data set [1], the Ki or IC50 activity class is < 300 nM.
Take `CN1CCC(OC(c2nc3ccccc3s2)c2cccc3ccccc23)CC1` (stereo not shown) [Example 17, 2-[(1-methylpiperidin-4-yloxy)naphthalen-1-ylmethyl]benzothiazole]: the melting point was found to be 106.5 °C. Moreover, the Ki or IC50 activity class in data set [1] was < 1000 nM.
For `CN1CCC(OC(c2cccc(Br)c2)c2nc3ccccc3s2)CC1` (stereo not shown) [Example 27, 2-[(3-bromo-phenyl)(1-methylpiperidin-4-yloxy)methyl]benzothiazole] the same measures were 99 °C and < 30 nM.
On to `CN1CCC(OC(c2ccccc2)c2nc3ccccc3[nH]2)CC1` (stereo not shown) [Example 30, 2-[(1-methylpiperidin-4-yloxy)phenylmethyl]-1H-benzimidazole], for which the melting point came to 110 °C. In addition, the Ki or IC50 activity class in data set [1] was < 300 nM.
The compound `CN1CCC(NC(c2ccccc2)c2nc3ccccc3[nH]2)CC1` (stereo not shown) [Example 39, [(1H-benzimidazol-2-yl)phenylmethyl](1-methylpiperidin-4-yl)amine] registered a melting point of 133 °C. The Ki or IC50 activity class in data set [1] is < 300 nM.
For `CCCOc1cccc(C(NC2CCN(C)CC2)c2nc3ccccc3s2)c1` (stereo not shown) [Example 42, [benzothiazol-2-yl(3-propoxyphenyl)methyl](1-methylpiperidin-4-yl)amine] the same measures were 90 °C and < 30 nM.
Turning to `Cc1cc(F)cc(C(NC2CCN(C)CC2)c2nc3ccccc3s2)c1` (stereo not shown) [Example 44, [benzothiazol-2-yl(3-fluoro-5-methylphenyl)methyl](1-methylpiperidin-4-yl)amine], the melting point turned out to be 102 °C. In data set [1], the Ki or IC50 activity class is < 1000 nM.
Compound `CCCOc1cccc(C(OC2CCN(C)CC2)c2nc3ccccc3[nH]2)c1` (stereo not shown) [Example 49, 2-[(1-methylpiperidin-4-yloxy)(3-propoxyphenyl)methyl]-1H-benzimidazole] showed a melting point of 135 °C. In data set [1], the Ki or IC50 activity class was < 1000 nM.
For `CCCOc1cccc(C(NC2CCN(C)CC2)c2nc3ccccc3[nH]2)c1` (stereo not shown) [Example 50, [(1H-benzimidazol-2-yl)(3-propoxyphenyl)methyl](1-methylpiperidin-4-yl)amine] the same measures were 143 °C and < 30 nM.
`CN1CCC(OC(c2cccc(I)c2)c2nc3ccccc3[nH]2)CC1` (stereo not shown) [Example 51, 2-[(3-iodophenyl)(1-methylpiperidin-4-yloxy)methyl]-1H-benzimidazole] came in with a melting point of 173.5 °C. In data set [1], the Ki or IC50 activity class was < 30 nM.
Regarding `CN1CCC(NC(c2cccnc2)c2nc3ccccc3s2)CC1` (stereo not shown) [Example 52, (benzothiazol-2-ylpyridin-3-ylmethyl)(1-methylpiperidin-4-yl)amine], the melting point was 109 °C. In data set [1], the Ki or IC50 activity class was < 1000 nM.
The like results for `CN1CCC(NC(c2ccc[nH]2)c2nc3ccccc3s2)CC1` (stereo not shown) [Example 58, [benzothiazol-2-yl(1H-pyrrol-2-yl)methyl](1-methylpiperidin-4-yl)amine] were, in that order, 125 °C and < 300 nM.
